Results from ChEMBL document CHEMBL1148227, “Biosynthesis of vitamin B6: direct identification of the product of the PdxA-catalyzed oxidation of 4-hydroxy-l-threonine-4-phosphate using electrospray ionization mass spectrometry” (Bioorg Med Chem Lett, 2004).

Columns and labels:
Assay type in all cases: ADME
Settings in all cases: buffer
[1] = Half life at pH 5.9
[2] = Half life at pH 8.1
[3] = Half life at pH 7.8

| half-life [1] [min] | half-life [2] [min] | half-life [3] [min] | Compound |
| --- | --- | --- | --- |
| 8.57 | 15.2 |  | CC(=O)C(N)C(=O)O (stereo not drawn) |
|  |  | 10 | NC(C(=O)O)C(=O)COP(=O)(O)O (stereo not drawn) |
